# Molecular target: Histone deacetylase (Eimeria tenella)
# Test: Tested for Histone deacetylase enzyme inhibition assay using Eimeria tenella extract
row,Compound,IC50 [nM]
1,CCC(=O)CCCCC[C@@H]1NC(=O)[C@H]2CCCCN2C(=O)[C@H]([C@@H](C)CC)NC(=O)[C@H](c2cn(OC)c3ccccc3c2=O)NC1=O,3.8
2,CCC(=O)CCCCC[C@@H]1NC(=O)[C@H]2CCCCN2C(=O)[C@H]([C@@H](C)CC)NC(=O)[C@H](c2cn(CC)c3ccccc3c2=O)NC1=O,11
3,CCC(=O)CCCCC[C@@H]1NC(=O)[C@H]2CCCCN2C(=O)[C@H]([C@@H](C)CC)NC(=O)[C@H](c2cn(C)c3ccccc3c2=O)NC1=O,9
4,CCCn1cc([C@@H]2NC(=O)[C@H](CCCCCC(=O)CC)NC(=O)[C@H]3CCCCN3C(=O)[C@H]([C@@H](C)CC)NC2=O)c(=O)c2ccccc21,28
